Here are results for 23 compounds from ChEMBL document CHEMBL5506021, “Artificial Intelligence-Assisted Optimization of Antipigmentation Tyrosinase Inhibitors: De Novo Molecular Generation Based on a Low Activity Lead Compound” (J Med Chem, 2024).

The source made the active and inactive calls. Where only a bound is given, the exact number is not on record here.

What is called IC50 is the midpoint of a concentration-inhibition curve. Usually half-life stands for the time needed for the level to fall by half in the phase considered. What is called Kd is a measure of binding affinity in units of concentration.

Data set [1] concerns the target T1, Mushroom tyrosinase (Agaricus bisporus, UniProt O42713+Q00024+C7FF04+C7FF05).
Description: Inhibition of mushroom tyrosinase diphenolase activity using L-dopamine as substrate preincubated for 10 mins followed by substrate addition and measured after 20 mins by absorbance based assay
Data set [2] deals with T1, Mushroom tyrosinase. This is another data set of the same source.
Description: Inhibition of mushroom tyrosinase monophenolase activity using L-tyrosine as substrate preincubated for 10 mins followed by substrate addition and measured after 20 mins by absorbance based assay
The nature of data set [3]: Toxicity in wildtype AB zebrafish assessed as effect on growth at 10 to 50 microM incubated for 45 hrs by anatomic microscopic analysis. The following applies: in vivo, dose 10-50 µM. Further details: species or system Danio rerio.
Data set [4] in a line: Toxicity in wildtype AB zebrafish assessed as effect on phenotype at 1 to 5 microM incubated for 45 hrs by anatomic microscopic analysis. The following applies: in vivo, dose 1-5 µM. Details: species or system Danio rerio.
The species entered for data set [5] is Danio rerio. The experiment in a line: Anti-pigmentation activity in wildtype AB zebrafish assessed as melanin reduction in head at 5 uM incubated for 45 hrs by anatomical microscopic analysis. The format is functional, organism-based.
Data set [6] can be described thus: Toxicity in wildtype AB zebrafish assessed as effect on phenotype at 10 to 50 microM incubated for 45 hrs by anatomic microscopic analysis. Details: species or system Danio rerio. The following applies: in vivo, dose 10-50 µM.
Data set [7] is filed under the species Danio rerio. The experiment in a line: Anti-pigmentation activity in wildtype AB zebrafish assessed as melanin looseness in head at 5 uM incubated for 45 hrs by anatomical microscopic analysis. It counts as functional, organism-based.
The species named for data set [8] is Danio rerio. Description: Anti-pigmentation activity in wildtype AB zebrafish assessed as depigmentation at 5 uM incubated for 45 hrs by anatomical microscopic analysis. It counts as functional.
For data set [9] the following is noted: zebrafish, in vivo, 45 h.
Description: Toxicity in wildtype AB zebrafish assessed as minimum toxic concentration measured after 45 hrs
Data set [10] can be described thus: Toxicity in wildtype AB zebrafish assessed as effect on growth at 1 to 5 microM incubated for 45 hrs by anatomic microscopic analysis. Further details: species or system Danio rerio. The following applies: in vivo, dose 1-5 µM.
A short description of data set [11]: Metabolic stability in human liver microsomes assessed as half-life at 1.5 uM preincubated for 5 mins followed by NADPH addition and measured after 10 mins by LC/MS analysis. The format is ADME, Microsome. The following applies: time 15 min. Background: Microsomes from liver hold many membrane-bound enzymes, among them those of drug oxidation.
The nature of data set [12]: Metabolic stability in human plasma assessed as half-life at 100 uM incubated for 120 mins by LC/MS analysis. It counts as ADME, cell-free.
A short description of data set [13]: Metabolic stability in human liver microsomes assessed as hepatic extraction ratio at 1.5 uM preincubated for 5 mins followed by NADPH addition and measured after 10 mins by LC/MS analysis. It counts as ADME, Microsome. The following applies: time 15 min, read-out: ERH.
Data set [14] is described as follows: Metabolic stability in human liver microsomes assessed as intrinsic clearance at 1.5 uM preincubated for 5 mins followed by NADPH addition and measured after 10 mins by LC/MS analysis. It counts as ADME, Microsome. The following applies: time 15 min, read-out: CLH.
The target in data set [15] is T2, Tyrosinase (Homo sapiens, UniProt P14679).
T2 sequence (P14679 whole entry): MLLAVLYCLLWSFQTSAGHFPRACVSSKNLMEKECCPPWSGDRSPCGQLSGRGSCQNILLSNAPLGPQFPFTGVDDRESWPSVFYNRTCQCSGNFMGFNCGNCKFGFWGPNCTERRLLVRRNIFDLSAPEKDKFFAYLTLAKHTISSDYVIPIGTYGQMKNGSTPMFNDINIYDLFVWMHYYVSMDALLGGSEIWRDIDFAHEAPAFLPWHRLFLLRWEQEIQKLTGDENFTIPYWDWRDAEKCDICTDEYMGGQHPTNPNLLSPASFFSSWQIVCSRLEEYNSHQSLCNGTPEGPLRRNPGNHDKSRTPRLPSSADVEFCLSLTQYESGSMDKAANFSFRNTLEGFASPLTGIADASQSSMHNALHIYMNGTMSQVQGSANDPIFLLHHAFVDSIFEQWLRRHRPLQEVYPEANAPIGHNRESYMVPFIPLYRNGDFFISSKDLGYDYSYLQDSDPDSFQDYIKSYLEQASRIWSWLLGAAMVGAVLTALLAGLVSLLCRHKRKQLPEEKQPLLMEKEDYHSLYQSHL
The experiment in a line: Binding affinity to tyrosinase (unknown origin) assessed as dissociation constant by SPR analysis. On the technique in general: SPR reads the build-up and loss of mass on a sensor chip optically.

Data set [16] can be described thus: Metabolic stability in human plasma assessed as compound remaining at 100 uM incubated for 120 mins by LC/MS analysis. It counts as ADME, cell-free. The following applies: read-out: Stability.
A short description of data set [17]: Metabolic stability in human liver microsomes assessed as compound remaining at 1.5 uM incubated for 45 mins by LC/MS analysis. The following applies: read-out: Stability. The format is ADME, Microsome.

Turning to `Cc1ccc(F)cc1NC(=O)CCN1CCCN(C/C=C/c2ccccc2)CC1`, the IC50 in [1] was above 800 µM; in [2] it was 639.85 µM.

Turning to `Cc1cc(C)c(NC(=O)CCN2CCCN(C/C=C/c3ccccc3)CC2)c(C)c1`, the IC50 in data set [1] was above 800 µM; in data set [2] it was 465.1 µM.

As to `Cc1ccc(/C=C/CN2CCN(C(=O)CCCC(=O)Nc3ccccn3)CC2)cc1`, the IC50 in data set [1] was 329.55 µM; in [2], 192.93 µM.

With `Cc1ccc(/C=C/CN2CCN(C(=O)CCC(=O)Nc3cccc(O)c3)CC2)cc1`, the 50% inhibitory concentration (IC50) in [1] is above 800 µM; in [2] it was 217.17 µM.

Take `Cc1ccc(C)c(NC(=O)CC(=O)N2CCCN(C/C=C/c3ccccc3)CC2)c1`: the IC50 was above 800 µM in data set [1] and 744.95 µM in data set [2].

For the compound `Cc1ccc(C)c(NC(=O)CCC(=O)N2CCCN(C/C=C/c3ccccc3)CC2)c1`, the half-inhibitory concentration (IC50) in data set [1] was above 800 µM; in data set [2], 393.05 µM.

Turning to `Cc1cccc(C)c1NC(=O)CCCN1CCCN(C/C=C/c2ccccc2)CC1`, the IC50 in [1] was above 800 µM; in [2], 248.7 µM.

`Cc1cccc(C)c1NC(=O)CN1CCN(C/C=C/c2ccccc2)CC1`: the concentration for half-maximal inhibition (IC50) in data set [1] worked out at 244.6 µM; in data set [2], 88.01 µM.

Consider `Cc1ccc(C)c(NC(=O)CN2CCCN(C/C=C/c3ccccc3)CC2)c1`, for which the IC50 in [1] and in [2] was above 800 µM in each case.

For `Cc1ccc(NC(=O)CCC(=O)Nc2cnn(C/C=C/c3ccccc3)c2)c(C)c1`, the IC50 in data set [1] and in [2] was above 800 µM in each case.

As for `Cc1ccc(NC(=O)CCCN2CCN(C/C=C/c3ccccc3)CC2)c(C)c1`, the Activity entry is given as “Toxic” in data set [3]; “Non-Toxic” in data set [4]; “Toxic” in [6]; 9.98% in [8]; “Non-Toxic” in data set [10]. Further, the result in [5] and in data set [7] was Active. Also, the IC50 in data set [1] was above 800 µM; in data set [2], 652.9 µM. The compound further displayed an MTC in data set [9] of 50 µM.

`Cc1cc(Cl)ccc1NC(=O)CN1CCCN(C/C=C/c2ccccc2)CC1`: the IC50 in data set [1] and in data set [2] was above 800 µM in each case.

In the case of `Cc1ccc(NC(=O)CN2CCCN(C/C=C/c3ccccc3)CC2)c(C)c1`, the IC50 in [1] and in data set [2] was above 800 µM each time.

In the case of `Cc1ccc(/C=C/CN2CCN(C(=O)CCC(=O)Nc3ccccc3C)CC2)cc1`, the IC50 in [1] came to 204.3 µM; in [2], 173 µM.

Take `Cc1ccc(NC(=O)CC(=O)N2CCCN(C/C=C/c3ccccc3)CC2)c(C)c1`: the IC50 in data set [1] was above 800 µM; in data set [2], 732.35 µM.

For the compound `Cc1ccc(/C=C/CN2CCN(C(=O)CCC(=O)Nc3ccc(O)cc3)CC2)cc1`, the values for the IC50 in data set [1] and in data set [2] were 131.77 µM and 40.34 µM, respectively.

For the compound `Cc1ccccc1NC(=O)CN1CCCN(C/C=C/c2ccccc2)CC1`, the IC50 in [1] and in data set [2] was above 800 µM each time.

Consider `Cc1ccc(NC(=O)CCC(=O)N2CCCN(C/C=C/c3ccccc3)CC2)c(C)c1`, for which the results for the IC50 in [1] and in data set [2] were above 800 µM and 681.3 µM, respectively.

In the case of `Cc1ccc(NC(=O)CCN2CCCN(C/C=C/c3ccccc3)CC2)cc1C`, the half-maximal inhibitory concentration (IC50) in data set [1] and in [2] was above 800 µM throughout.

On to `Cc1ccc(NC(=O)CCN2CCCN(C/C=C/c3ccccc3)CC2)cc1`, for which the IC50 is 536.05 µM in data set [1] and 338.4 µM in data set [2].

Consider `Cc1ccc(/C=C/CN2CCN(C(=O)CCC(=O)Nc3ccccc3O)CC2)cc1`, for which the half-life at 1.5 µM in data set [11] was found to be 24.6 min. Further, the half-life at 100 µM in data set [12] is above 120 min. The hepatic extraction ratio at 10 min, 1.5 µM in data set [13] turned out to be 0.759. The CLint scaled at 1.5 µM in data set [14] was determined as 65.2 mL/min/kg. Also, the Kd in [15] stood at 198 µM. For the same compound, the remaining at 2 h, 100 µM in data set [16] was 94.6%. In addition, the IC50 amounted to 31.01 µM in data set [1] and 11.49 µM in data set [2]. Moreover, the remaining at 0.75 h, 1.5 µM in [17] came to 28.1%. The compound further displayed an MTC in data set [9] of 5 µM.

Consider `Cc1ccc(NC(=O)CCN2CCCN(C/C=C/c3ccccc3)CC2)c(C)c1`, for which the IC50 in [1] turned out to be 465.1 µM; in [2] it was 255.4 µM.

As to `Cc1ccc(C)c(NC(=O)CCN2CCCN(C/C=C/c3ccccc3)CC2)c1`, the IC50 turned out to be 555.4 µM in data set [1] and 234.2 µM in [2].
